Measured values taken from PubChem BioAssay AID1159561 (GlaxoSmithKline (GSK), 2015).
pIC50: −log10 of the molar value. Active and inactive are the calls of the source.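 How the source made its calls: active means toxic to mouse fibroblast host cells, with IC50 below 50 µM; inactive means the rest.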

Each compound was assayed on NIH-3T3 viability, ATP luminescence (assay: murine fibroblast viability via ATP level – cell-based, murine fibroblasts, cytotoxicity control for Trypanosoma cruzi inhibitor project (AID 1159561)). Settings: 4 days.
In the case of `N#Cc1c(Oc2cccc(Cl)c2)cccc1[N+](=O)[O-]`, the pIC50 was 4.70.
With `Cn1nc([N+](=O)[O-])nc1Oc1ccc(C(=O)c2ccccc2)cc1` the IC50 was > 50 µM (inactive).
`CC(Cn1ccnc1)NC(=O)C=Cc1ccc(Cl)cc1` (stereo not drawn) was tested, and the IC50 was > 50 µM (inactive).
For `O=c1oc2ccccc2n1C1CCN(Cc2ccccc2-c2cccnc2)CC1`, the pIC50 was 4.80.
`Cc1ccc(CNC2CCN(C[C@@H]3Cn4c(=O)ccc5ccc(=O)n3c54)CC2)cc1F` showed a pIC50 of 4.80.
For `CC1(Oc2cncc(Cl)c2)CCN(Cc2cc3ccccc3[nH]2)C1` (stereo not drawn), the pIC50 was 5.00.
`c1ccc(CCNCc2cncc3nc(-c4cnccn4)n(C4CCCCC4)c23)cc1` was tested, and the pIC50 was 5.20.
`Cc1nnnn1-c1cccc(C(=O)N2CCC[C@@]3(C)c4ncncc4CCC23)c1` (stereo partly drawn) was tested, and the IC50 was > 50 µM (inactive).
`Cc1cc2ncn(-c3ccc([N+](=O)[O-])cc3C#N)c2cc1C` was tested, and the IC50 was > 50 µM (inactive).
Compound `CN(C(=O)Nc1ccc2c(c1)CCN(C1CCC1)CC2)c1ccc(C#N)cc1` has a pIC50 of 4.40.
In the case of `CC(C)Nc1nccc(-c2c(-c3ccc(F)cc3)ncn2C2CCOCC2)n1`, the IC50 was > 50 µM (inactive).
For `N#Cc1cc([N+](=O)[O-])ccc1NC1CCCCCC1`, the IC50 was > 50 µM (inactive).
`O=C(c1cc2cc(Cl)ccc2[nH]1)N1CCCCC1c1cccnc1` (stereo not drawn) showed a pIC50 of 4.40.
`OCCCNc1nc(Nc2ccncc2)nc2ccccc12` was tested, and the IC50 was > 50 µM (inactive).
Compound `O=C(NCCc1cccnc1)c1ccc(-c2ccccc2F)o1` has a pIC50 of 4.40.
With `CN(C)c1ncc(-c2cncn2CCOc2ccc(Cl)cc2)cn1` the pIC50 was 4.40.
`CN1CCCN(C(=O)c2ccc(N3CCCC3)cc2Cl)CC1` was tested, and the pIC50 was 4.60.
`O=C(NCCc1cccnc1)c1csc(-c2ccccc2)n1` showed a pIC50 of 4.30.
For `O=C(Nc1ccc(C(=O)N2CCCC2c2ccc3c(c2)OCCCO3)cc1)c1ccco1` (stereo not drawn), the IC50 was > 50 µM (inactive).
Work on `CN(C)CCOc1ccc(N2CCN(S(=O)(=O)c3ccc(Cl)cc3)CC2)cc1` yielded a pIC50 of 4.80.
For `Cc1cc(C)nc(N2CCC(N(Cc3cccnc3)C(=O)c3cccc(C#N)c3)CC2)n1`, the pIC50 was 5.10.
`CC(C(=O)Nc1ccccc1F)N(C)CC(=O)Nc1cccc2ccccc12` (stereo not drawn) was tested, and the pIC50 was 4.89.
In the case of `CCCN1CCN(Cc2ccc(S(=O)(=O)Nc3cccc(C)c3)cc2)CC1`, the pIC50 was 4.60.
For `Cc1nccn1C1CCCN(C(=O)c2cc3c(F)cccc3s2)C1` (stereo not drawn), the pIC50 was 4.70.
Work on `CC(=O)Nc1ccc(-c2csc(NC(=O)c3ccc([N+](=O)[O-])s3)n2)cc1` yielded a pIC50 of 5.20.
`O=C(NCc1ccncc1)c1ccccc1N1CCCN(C(=O)Cc2ccc(F)c(F)c2)CC1` was tested, and the pIC50 was 4.80.
`O=C(NC(c1ccc(Cl)cc1)c1cnccn1)C1CCN(C(=O)Nc2cccc(C(F)(F)F)c2)CC1` (stereo not drawn) showed a pIC50 of 4.40.
`CN(Cc1cc2ccccc2s1)c1ncc2c(N)nc(N)nc2n1` showed a pIC50 of 4.60.
`O=C(Cn1cnc2cc([N+](=O)[O-])ccc2c1=O)NCCc1ccc(Cl)cc1Cl` was tested, and the IC50 was > 50 µM (inactive).
For `Cc1[nH]nc2c1C(c1ccc(OCc3ccccc3F)cc1)SCC(=O)N2` (stereo not drawn), the IC50 was > 50 µM (inactive).
`COc1ccc(-c2ccc3nnc(-c4ccc(O)c(OC)c4)n3c2)cn1` showed a pIC50 of 4.30.
`CCCCNc1nccc(-c2c(-c3ccc(F)cc3)nn3c(N4CCOCC4)cccc23)n1` was tested, and the pIC50 was 5.00.
`COc1cc(-c2nc(N3CCOCC3)sc2-c2ccnc(NC3CCOCC3)n2)ccc1Cl` was tested, and the IC50 was > 50 µM (inactive).
`O=C(Nc1ncc([N+](=O)[O-])s1)C1CC1` showed a pIC50 of 4.49.
In the case of `Cc1ccc2sc(NC(=O)Cn3cnc([N+](=O)[O-])n3)nc2c1`, the pIC50 was 4.30.
`CN(C)Cc1ccc(-c2ccc(S(=O)(=O)NCC3CCCO3)c(F)c2)cc1` (stereo not drawn) showed a pIC50 of 4.80.
`COc1ccc(-c2nc3ccncc3c(=O)n2CCOc2ccccc2)cc1` showed a pIC50 of 4.49.
`CC(C)c1cc(C(=O)N2CCCC(c3cc4ncccc4[nH]3)C2)on1` (stereo not drawn) showed a pIC50 of 4.70.
Compound `CCCc1nc2nc(N)nc(N)c2cc1CC` has a pIC50 of 4.49.
`COc1ccc(NS(=O)(=O)c2cccc(NC(=O)c3cc(F)cc(F)c3)c2)cc1` showed a pIC50 of 4.60.
`O=c1ccn(-c2ccc([N+](=O)[O-])cc2Cl)c2ccc(F)cc12` was tested, and the IC50 was > 50 µM (inactive).
`COc1cc(C(C)C)c(S(C)(=O)=O)cc1C(=O)N1CCN(c2ccccc2Cl)CC1` was tested, and the IC50 was > 50 µM (inactive).
`Cc1c(C(=O)NCCCCn2ccnc2)oc2c(C)cccc12` was tested, and the pIC50 was 4.49.
